Assay results reported in ChEMBL document CHEMBL1201862, “PubChem BioAssay data set” (2004).
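In this assay, cells in 96-well plates receive the compound at five concentrations for 48 hours. Endpoints are linearly interpolated between the surrounding concentrations. Here, GI50 denotes the concentration required for 50% inhibition of growth.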 Calls of active or inactive are those of the source. Rule as the data show it: active = GI50 up to about 1.1 µM and inactive = higher.

How the values were obtained:
Test in all cases: inhibition of tumour cell growth, NCI panel, 48 h
COLO 205 = system: COLO 205
HCT-116 = system: HCT-116
786-0 = system: 786-0
SK-MEL-2 = system: SK-MEL-2
HCT-15 = system: HCT-15
OVCAR-8 = system: OVCAR-8
SN12C = system: SN12C
HT-29 = system: HT-29
DU-145 = system: DU-145
CAKI-1 = system: CAKI-1
MDA-MB-435 = system: MDA-MB-435
UO-31 = system: UO-31
A498 = system: A498
SNB-19 = system: SNB-19
SF-295 = system: SF-295

Row | Compound | GI50 (COLO 205) | GI50 (HCT-116) | GI50 (786-0) | GI50 (SK-MEL-2) | GI50 (HCT-15) | GI50 (OVCAR-8) | GI50 (SN12C) | GI50 (HT-29) | GI50 (DU-145) | GI50 (CAKI-1) | GI50 (MDA-MB-435) | GI50 (UO-31) | GI50 (A498) | GI50 (SNB-19) | GI50 (SF-295)
1 | O=C(O)c1ccc([N+](=O)[O-])c(P(=O)(O)O)c1 | > 100 µM (inactive) | > 100 µM (inactive) | > 100 µM (inactive) | > 100 µM (inactive) | > 100 µM | > 100 µM (inactive) | > 100 µM (inactive) | > 100 µM (inactive) | > 100 µM (inactive) | > 100 µM (inactive) | > 100 µM (inactive) | > 100 µM (inactive) | > 100 µM (inactive) | > 100 µM (inactive) | > 100 µM (inactive)
2 | O=C1C(C(c2ccc([N+](=O)[O-])cc2)N2CCOCC2)=C(O)C(c2ccccc2)N1c1ccccc1 (stereo not given) | > 10 µM (inactive) | > 10 µM (inactive) | > 10 µM (inactive) | > 10 µM (inactive) | > 10 µM | > 10 µM (inactive) | > 10 µM (inactive) | > 10 µM (inactive) | > 10 µM (inactive) | > 10 µM (inactive) | > 10 µM (inactive) | > 10 µM (inactive) | > 10 µM (inactive) | > 10 µM (inactive) | > 10 µM (inactive)
3 | Cc1cc(=O)[nH]c2cc(NC(=O)C(CCCNC(=N)N)NC(=O)OCc3ccccc3)ccc12 (stereo not given) | > 100 µM (inactive) | > 100 µM (inactive) | > 100 µM (inactive) | > 100 µM (inactive) | > 100 µM | > 100 µM (inactive) | > 100 µM (inactive) | > 100 µM (inactive) | > 100 µM (inactive) | > 100 µM (inactive) | > 100 µM (inactive) | > 100 µM (inactive) | > 100 µM (inactive) | > 100 µM (inactive) | 48.5 µM (inactive)
4 | O=c1[nH]c(N/N=C\C(O)C(O)C(O)CO)nc2ccccc12 (stereo not given) | 83.2 µM (inactive) | > 100 µM (inactive) | > 100 µM (inactive) | > 100 µM (inactive) | > 100 µM | > 100 µM (inactive) | > 100 µM (inactive) | > 100 µM (inactive) | > 100 µM (inactive) | > 100 µM (inactive) | > 100 µM (inactive) | > 100 µM (inactive) | > 100 µM (inactive) | > 100 µM (inactive) | > 100 µM (inactive)
5 | Nc1ncnc2c1ncn2[C@@H]1O[C@H](COP(=O)(O)OP(=O)(O)OC[C@H]2O[C@@H](OCCCO)[C@H](O)[C@@H]2O)[C@@H](O)[C@H]1O | > 100 µM (inactive) | 61.1 µM (inactive) | > 100 µM (inactive) | > 100 µM (inactive) | 60 µM | > 100 µM (inactive) | > 100 µM (inactive) | 69.8 µM (inactive) | > 100 µM (inactive) | 85.9 µM (inactive) | > 100 µM (inactive) | > 100 µM (inactive) | > 100 µM (inactive) | 76.6 µM (inactive) | > 100 µM (inactive)
6 | C[N+]12CCCCC1C(CN1C(=O)Cc3c4ccccc4c(c4ccccc34)CC1=O)CCC2 (stereo not given) | > 100 µM (inactive) | > 100 µM (inactive) | > 100 µM (inactive) | > 100 µM (inactive) | > 100 µM | > 100 µM (inactive) | > 100 µM (inactive) | > 100 µM (inactive) | > 100 µM (inactive) | > 100 µM (inactive) | > 100 µM (inactive) | > 100 µM (inactive) | > 100 µM (inactive) | > 100 µM (inactive) | > 100 µM (inactive)
7 | O=C(Cc1ccc(OCc2cccc(Cl)c2)cc1)NO | 25 µM (inactive) | 24.5 µM (inactive) | 14.7 µM (inactive) | 21 µM (inactive) | 14.1 µM | 11.7 µM (inactive) | 27.6 µM (inactive) | 27 µM (inactive) | 21.5 µM (inactive) | 19.9 µM (inactive) | 41.8 µM (inactive) | 12.8 µM (inactive) | 2.7 µM (inactive) | 37.2 µM (inactive) | 32 µM (inactive)
